Experiments:
[1] = Pro-drug activity: conversion of amidoxime to amidine in mice; type: in vivo; conditions: 20 mpk, IP or oral, FIG. 7B
Protocol: Mice were dosed with 20 mpk of amidoxime, VPC96143, both IP and orally. S1P in plasma and organs was measured at times ASAP, 2 hrs and 24 hrs. The compound amidine, VPC96077, was also measured in plasma and organs at times ASAP, 2 hrs and 24 hrs.
Mice Numbering • 51: dosed with 20 mpk amidoxime VPC96143 administered IP. Plasma extracted ASAP and 2 hrs. Organs harvested at 2 hrs. • 52: dosed with 20 mpk amidoxime VPC96143 administered IP. Plasma extracted ASAP and 24 hrs. Organs harvested at 2 hrs. • 53: dosed with 20 mpk amidoxime VPC96143 administered orally. Plasma extracted ASAP and 2 hrs. Organs harvested at 2 hrs.

human SphK1 = human SphK1 (Homo sapiens (Human), UniProt Q9NYA1); test: Determination of Ki values, recombinant human SphK1 in Sf9 cell homogenates; type: biochemical; conditions: amidine HCl salt; recombinant human SphK1, Sf9 homogenate, 37 C, 20 minutes; read-out: SphK1 inhibitory constant (Ki)
Sequence of human SphK1 (Q9NYA1 whole entry): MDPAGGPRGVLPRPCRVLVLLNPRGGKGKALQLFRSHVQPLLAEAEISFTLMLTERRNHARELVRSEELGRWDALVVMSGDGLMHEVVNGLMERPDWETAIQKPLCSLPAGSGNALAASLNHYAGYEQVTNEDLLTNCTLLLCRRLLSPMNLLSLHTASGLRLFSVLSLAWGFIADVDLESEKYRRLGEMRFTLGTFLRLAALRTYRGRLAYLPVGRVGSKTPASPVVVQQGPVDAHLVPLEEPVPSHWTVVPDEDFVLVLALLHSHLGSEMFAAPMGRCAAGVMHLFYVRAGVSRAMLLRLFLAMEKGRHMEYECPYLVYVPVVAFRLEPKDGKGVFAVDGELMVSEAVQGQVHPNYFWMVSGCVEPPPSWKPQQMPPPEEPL
Protocol: (§1) Sphingosine kinase activity was assessed as described previously (Kharel, Y., Lee, S., Snyder, A. H., Sheasley-O'Neill, S. L., Morris, M. A., Setiady, Y., Zhu, R., Zigler, M. A., Burcin, T. L., Ley, K., Tung, K. S. K., Engelhard, V. H., Macdonald, T. L. and Lynch, K. R. Sphingosine kinase 2 is required for modulation of lymphocyte traffic by FTY720. J Biological Chemistry 280: 36865-36872 (2005)). High levels of human sphingosine kinase type 1 (mSK1) and mouse sphingosine kinase type 2 (mSK2) were expressed in Sf9 insect cells by infection with cognate baculoviruses. Crude homogenates were incubated with γ-[^32P]ATP and 10 micromolar D-erythro-sphingosine in the presence of 100 micromolar concentrations of test compounds for 20 minutes at 37 C. The product, radiolabeled S1P, was isolated by extraction into organic solvents after acidification and […] by thin layer chromatography. […]
(§2) Crude homogenates of Sf9 cells containing high levels of recombinant mouse SphK2 or human SphK1 were incubated with γ-[^32P]ATP and various concentrations (0 to 500 micromolar) of D-erythro-sphingosine for 20 minutes […] at 37 C in the presence of fixed concentration of test compound. The product, radiolabeled S1P, was isolated by extraction into organic solvents followed by thin layer chromatography, recovered and radioactivity measured by liquid scintillation counting. […]

mouse SphK2 = mouse SphK2 (Mus musculus (Mouse), UniProt Q9JIA7); test: Determination of Ki values, recombinant mouse SphK2 in Sf9 cell homogenates; type: biochemical; conditions: amidine HCl salt; recombinant mouse SphK2, Sf9 homogenate, 37 C, 20 minutes; read-out: SphK2 inhibitory constant (Ki)
Sequence of mouse SphK2 (Q9JIA7 whole entry): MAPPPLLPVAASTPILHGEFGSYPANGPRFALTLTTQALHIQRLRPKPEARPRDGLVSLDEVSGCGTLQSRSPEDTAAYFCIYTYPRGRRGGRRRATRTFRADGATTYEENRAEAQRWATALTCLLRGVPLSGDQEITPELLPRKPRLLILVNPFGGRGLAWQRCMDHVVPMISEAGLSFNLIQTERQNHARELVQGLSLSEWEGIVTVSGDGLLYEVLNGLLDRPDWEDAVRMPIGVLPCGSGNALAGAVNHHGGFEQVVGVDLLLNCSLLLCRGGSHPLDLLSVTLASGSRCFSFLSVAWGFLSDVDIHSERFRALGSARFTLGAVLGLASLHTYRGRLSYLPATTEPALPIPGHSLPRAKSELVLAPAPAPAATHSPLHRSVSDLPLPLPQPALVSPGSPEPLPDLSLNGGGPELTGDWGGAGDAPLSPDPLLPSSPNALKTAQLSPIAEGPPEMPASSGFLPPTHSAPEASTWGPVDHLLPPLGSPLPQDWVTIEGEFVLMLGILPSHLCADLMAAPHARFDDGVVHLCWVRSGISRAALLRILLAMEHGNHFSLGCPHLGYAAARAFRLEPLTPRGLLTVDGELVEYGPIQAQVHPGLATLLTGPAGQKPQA
Protocol: as §1, §2

Row | Ki (human SphK1) [µM] | Ki (mouse SphK2) [µM] | Compound | conversion of amidoxime pro-drug to amidine congener VPC96077 (accumulation in plasma) [1]
1 |  |  | CCCCCCCCCCCc1ccc(C(=O)N2CCC[C@H]2/C(N)=N/O)cc1 [VPC96143] | conversion of the amidoxime to the amidine in vivo
2 | 0.5 | > 10 | N/C(=N\O)C1(C(=O)Nc2ccc(CCCCCCCCCc3ccccc3)cc2)CC1 [VPC143129] | 

— patent publication US9421177B2, “Imidamide sphingosine kinase inhibitors” (University of Virginia Patent Foundation, priority 2009, dated 2016)
